Experimental data taken from PMC7928264 (Journal of pharmacy & pharmaceutical sciences : a …, 2014).
Structures can show the parent of a compound that is named as a salt. Where two headings read alike, the source gives them in different places.

Assays:
OCTs = conditions: for Inhibition of tacrine uptake vs untreated control: 30 min pre-incubation, 1 μM tacrine 5 min, SCHs day 1
OATPs = OATPs inhibition study with rifampicin on tacrine cellular accumulation; type: in vitro ADME, rat; conditions: data not shown
[1] = human, in vivo; cited from earlier work
[2] = test system: sandwich-cultured primary rat hepatocytes (SCHs); conditions: 5 min, 1 μM
hepatic transaminase = conditions: human, in vivo; cited from earlier work
[3] = test system: sandwich-cultured primary rat hepatocytes (SCHs); conditions: 1 μM
[4] = test system: sandwich-cultured primary rat hepatocytes (SCHs)
P-gp = conditions: 5 μM valspodar, 1 μM tacrine, 10 min, SCHs day 4

CC[N+](CC)(CC)CC [TEA, tetraethylammonium chloride]
Inhibition of tacrine uptake vs untreated control (OCTs; inhibitor 300 μM): ~ 18%

CN/C(=N/CCSCc1nc[nH]c1C)NC#N [cimetidine]
Inhibition of tacrine uptake vs untreated control (OCTs; inhibitor 300 μM): > 50%

COCCCC/C(=N\OCCN)c1ccc(C(F)(F)F)cc1 [fluvoxamine, Fluvoxamine maleate]
Inhibition of tacrine uptake vs untreated control (OCTs; inhibitor 50 μM): > 50%

CO[C@H]1/C=C/O[C@@]2(C)Oc3c(C)c(O)c4c(O)c(c(/C=N/N5CCN(C)CC5)c(O)c4c3C2=O)NC(=O)/C(C)=C\C=C\[C@H](C)[C@H](O)[C@@H](C)[C@@H](O)[C@@H](C)[C@H](OC(C)=O)[C@@H]1C [rifampicin]
Effect on tacrine cellular accumulation (OATPs): did not alter tacrine cellular accumulation

Nc1c2c(nc3ccccc13)CCCC2 [tacrine, 9-amino-1,2,3,4-tetrahydroacridine]
Oral bioavailability [1]: 17–24%
Average uptake ([2]; pH 6.4): 68±4 pmol/min/mg protein
Decrease in uptake compared to neutral pH (7.4) ([2]; pH 6.4): approximately 3 fold
Average uptake ([2]; pH 7.4): 405±16 pmol/min/mg protein
Average uptake ([2]; pH 8.4): 816±62 pmol/min/mg protein
Increase in uptake compared to neutral pH (7.4) ([2]; pH 8.6): ~2 fold
Patients with significantly elevated hepatic transaminase concentrations (hepatic transaminase): 25%
Time of maximum biliary excretion [3]: 10 min
BEI% ([3]; 10 min): 22.9±1.9%
Time at which uptake reaches a plateau ([4]; 1 μM tacrine, SCHs day 1): 10 min
Uptake Vmax ([4]; SCHs, day 1, saturable uptake (37°C minus 4°C), tacrine 0.1–500 μM): 908±72 pmol/min/mg protein

C/C=C/C[C@@H](C)C(=O)[C@H]1C(=O)N[C@@H](C(C)C)C(=O)N(C)CC(=O)N(C)[C@@H](CC(C)C)C(=O)N[C@@H](C(C)C)C(=O)N(C)[C@@H](CC(C)C)C(=O)N[C@@H](C)C(=O)N[C@H](C)C(=O)N(C)[C@@H](CC(C)C)C(=O)N(C)[C@@H](CC(C)C)C(=O)N(C)[C@@H](C(C)C)C(=O)N1C [valspodar]
Reduction of tacrine BEI% (P-gp): approximately 60%

COc1ccc(CCN(C)CCCC(C#N)(c2ccc(OC)c(OC)c2)C(C)C)cc1OC (stereo not shown) [verapamil, verapamil hydrochloride]
Inhibition of tacrine uptake vs untreated control (OCTs; inhibitor 50 μM): > 50%
Concentration giving maximal inhibition of tacrine uptake (OCTs; verapamil tested at 10, 50 and 100 μM, concentration-dependent, P<0.001): 100 µM
Reduction in tacrine uptake (OCTs; verapamil, concentration not given, SCHs): 3 fold
